We go through 12 compounds from PubChem BioAssay (NCI).

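96-well plates; 48 h exposure; 5 concentrations. Endpoints by linear interpolation between flanking doses. Not reached: highest tested concentration assigned. GI50: concentration for 50% inhibition of growth. TGI is the concentration that stops growth completely.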 Active and inactive are the calls of the source. Cut-off read from the data, not from the text of the source: active = GI50 below about 0.43 µM; inactive = the rest.

Test systems include ACHN renal; MOLT-4 leukemia; SNB-19 CNS; OVCAR-5 ovarian; EKVX NSCLC; RXF 393 renal; COLO 205 colon; SNB-75 CNS; HT29 colon.
Holding throughout (experiment): NCI anticancer screen, dose series, 48 h

`C[C@@H]1OC(=O)N2CCCC(=C3SCCCS3)C12` (stereo partly specified): the TGI with ACHN renal, with MOLT-4 leukemia, in the assay with SNB-19 CNS, with OVCAR-5 ovarian, in the assay on EKVX NSCLC and with RXF 393 renal was more than 100 µM in each case. Also, the TGI with COLO 205 colon, in the assay on SNB-75 CNS and in the assay with HT29 colon was more than 100 µM throughout.
For the compound `CC1CN1C(=O)NCCCCCCNC(=O)N1CC1C` (stereo unspecified), the TGI in the assay with ACHN renal, with MOLT-4 leukemia, in the assay with SNB-19 CNS, with OVCAR-5 ovarian, in the assay on EKVX NSCLC and with RXF 393 renal was more than 100 µM in each case. Moreover, the TGI with COLO 205 colon, in the assay on SNB-75 CNS and with HT29 colon was more than 100 µM each time.
For the compound `COc1ccc(C(=O)C#Cc2cnc(OC)nc2OC)cc1`, the GI50 in the assay on ACHN renal was 17200 µM; with MOLT-4 leukemia, 17900 µM; in the assay with OVCAR-5 ovarian, 31100 µM; in the assay on EKVX NSCLC, 23700 µM; in the assay on RXF 393 renal, 26800 µM; with HT29 colon it was 17900 µM. Further, the TGI amounted to 24.7 µM with SNB-19 CNS, 3.01 µM with OVCAR-5 ovarian, 42100 µM in the assay with COLO 205 colon and 4.8 µM in the assay on SNB-75 CNS. The result in the assay on SNB-19 CNS and with SNB-75 CNS was inactive.
Turning to `CCOC(=O)/C(C#N)=C/c1[nH]c(C(=O)OCc2ccccc2)c(C)c1C`, the TGI with ACHN renal, in the assay with MOLT-4 leukemia, in the assay with SNB-19 CNS, in the assay with OVCAR-5 ovarian, in the assay with EKVX NSCLC and in the assay on RXF 393 renal was more than 100 µM each time. Further, the TGI in the assay on COLO 205 colon, in the assay on SNB-75 CNS and in the assay with HT29 colon was more than 100 µM each time.
For the compound `COc1cc(Nc2nc3ccccc3nc2-c2cccs2)cc(OC)c1OC`, the TGI in the assay with ACHN renal, in the assay with MOLT-4 leukemia, with SNB-19 CNS, in the assay on OVCAR-5 ovarian, with EKVX NSCLC and with RXF 393 renal was more than 100 µM in each case. Moreover, the figures for the TGI in the assay with COLO 205 colon, in the assay on SNB-75 CNS and in the assay on HT29 colon were more than 10 µM, more than 100 µM and more than 100 µM, respectively.
With `CC1OC(OC2C(OC(=O)[C@]34CCC(C)(C)CC3C3=CCC5[C@@]6(C)C[C@H](O)[C@H](OC7OC(CO)C(O)C(O)C7N)[C@@](C)(C(=O)O)C6CC[C@@]5(C)C3(C)CC4)OCC(O)C2O)C(O)C(O)C1OC1OCC(O)C(O)C1O` (stereo partly specified), the TGI in the assay on ACHN renal, in the assay on MOLT-4 leukemia, in the assay with SNB-19 CNS, with OVCAR-5 ovarian, in the assay with EKVX NSCLC and with RXF 393 renal was more than 100 µM each time. The TGI with COLO 205 colon, in the assay with SNB-75 CNS and in the assay on HT29 colon was more than 100 µM throughout.
`O=C(O)C(CS)Nc1c2ccccc2nc2ccccc12` (stereo unspecified): the TGI in the assay with ACHN renal, with MOLT-4 leukemia, with SNB-19 CNS, in the assay on OVCAR-5 ovarian, with EKVX NSCLC and in the assay on RXF 393 renal was more than 100 µM each time. Also, the TGI in the assay with COLO 205 colon, in the assay with SNB-75 CNS and in the assay with HT29 colon was more than 100 µM in each case.
For `O=C1NC(=O)C(CCC(=O)c2ccc3ccccc3c2)C(=O)N1`, the TGI with ACHN renal, with MOLT-4 leukemia, in the assay on SNB-19 CNS, in the assay with OVCAR-5 ovarian, with EKVX NSCLC and in the assay on RXF 393 renal was more than 100 µM throughout. Further, the TGI in the assay on COLO 205 colon, in the assay with SNB-75 CNS and in the assay on HT29 colon was more than 100 µM each time.
For the compound `COC(=O)Nc1nc2ccc(Oc3ccc(NC(=O)Nc4cc(C(F)(F)F)ccc4F)cc3)cc2s1`, the GI50 was more than 25 µM with ACHN renal; more than 25 µM in the assay on MOLT-4 leukemia; more than 25 µM in the assay with SNB-19 CNS; more than 25 µM with OVCAR-5 ovarian; more than 14.7 µM in the assay with EKVX NSCLC; more than 25 µM in the assay with RXF 393 renal. In addition, the GI50 with COLO 205 colon is more than 25 µM; in the assay on SNB-75 CNS it was 6.76 µM; in the assay with HT29 colon, 12.7 µM. Moreover, the TGI in the assay with ACHN renal, in the assay on MOLT-4 leukemia, in the assay on SNB-19 CNS, with OVCAR-5 ovarian, in the assay on EKVX NSCLC and in the assay with RXF 393 renal was more than 25 µM in each case. For the same compound, the TGI in the assay on COLO 205 colon was more than 25 µM; in the assay with SNB-75 CNS, more than 23.8 µM; with HT29 colon, more than 25 µM.
Consider `Nc1nc(N(Cc2ccccc2)c2ccccc2)c2cn[nH]c2n1`, for which the GI50 with ACHN renal was 5 µM; with MOLT-4 leukemia, 3.21 µM; with SNB-19 CNS, more than 100 µM; with EKVX NSCLC it was 3.57 µM; in the assay with RXF 393 renal, 2.93 µM; in the assay with COLO 205 colon, 2.9 µM. The GI50 is 2.47 µM with SNB-75 CNS and 3.54 µM in the assay with HT29 colon. The TGI was more than 100 µM in the assay with ACHN renal; more than 100 µM with MOLT-4 leukemia; more than 100 µM with SNB-19 CNS; more than 100 µM with EKVX NSCLC; 22 µM in the assay with RXF 393 renal; more than 100 µM in the assay with COLO 205 colon. Moreover, the TGI with SNB-75 CNS and with HT29 colon was more than 100 µM throughout.
With `Nc1nc2c(nnn2C2CC(O)C(CO)O2)c(=O)[nH]1` (stereo unspecified), the GI50 was 1 µM in the assay on ACHN renal; 2.61 µM in the assay with MOLT-4 leukemia; 34.1 µM in the assay with SNB-19 CNS; 26.2 µM in the assay on OVCAR-5 ovarian; 93.5 µM with EKVX NSCLC; 3.05 µM in the assay with RXF 393 renal. Moreover, the results for the GI50 with COLO 205 colon, in the assay with SNB-75 CNS and with HT29 colon were 1.89 µM, 7.59 µM and 13.5 µM, respectively. The TGI was more than 22.7 µM in the assay on ACHN renal; more than 53 µM with MOLT-4 leukemia; more than 100 µM in the assay on SNB-19 CNS; more than 100 µM in the assay with OVCAR-5 ovarian; more than 100 µM in the assay with EKVX NSCLC; 33.8 µM in the assay on RXF 393 renal. Further, the TGI in the assay on COLO 205 colon was 6.3 µM; with SNB-75 CNS, more than 100 µM; with HT29 colon it was more than 100 µM.
Take `O=[N+]([O-])c1ccc(C=NC2CCCCC2)cc1`: the TGI in the assay with ACHN renal, in the assay with MOLT-4 leukemia, in the assay on SNB-19 CNS, in the assay on OVCAR-5 ovarian, in the assay on EKVX NSCLC and in the assay with RXF 393 renal was more than 100 µM in each case. Moreover, the TGI with COLO 205 colon, with SNB-75 CNS and in the assay with HT29 colon was more than 100 µM in each case.
